“And” between values parts separate entries of the source, which are not always exact repeats. Identical values can stand only once.
Tested on: TLR7 signal in P rat NAc
Assay: TLR7 signal in P rat NAc after systemic 3α,5α-THP (immunoblot)
Type: in vivo
Settings: 15 mg/kg I.P.
Description: Neuropsychopharmacology 40(8): 1549-1559; Aurelian L, et al. (2016). Transl Psychiatry 6: e815). Systemic administration of 3α,5α-THP (15 mg/kg, I.P.) to naïve female P rats inhibited the expression of TLR7 (40%), pIRF7 (40%), and TRAF6 (40%) in P rat NAc, with no effect on IRF3. Similar results were obtained in a separate study of the male P rats.
Next, potential sex differences were directly examined in baseline or 3α,5α-THP inhibition of MCP-1 and pIRF7 expression in female vs. male P rat NAc (FIG. 9). […] Systemic administration of 3α,5α-THP (15 mg/kg, I.P.) to naïve female and male P rats inhibited the expression of MCP-1 (40% in female rat NAc; 25% in male rat NAc). Likewise, 3α,5α-THP administration to naïve female and male P rats inhibited the expression of pIRF7 to the same extent, (55% in female rat NAc; 55% in male rat NAc).

CC(=O)[C@H]1CC[C@H]2[C@@H]3CC[C@H]4C[C@H](O)CC[C@]4(C)[C@H]3CC[C@]12C [3α,5α-THP, (3α,5α)3-hydroxypregnan-20-one]
inhibition of TRAF6 (male P rats): 45%
effect on IRF3 in NAc (naïve female P rats): no effect
inhibition of TLR7 expression in NAc (naïve female P rats): 40%
inhibition of TRAF6 expression in NAc (naïve female P rats): 40%
inhibition of pIRF7 expression in NAc (naïve female P rats): 40% and 55%
inhibition of pIRF7 expression in NAc (naïve male P rats): 55%

From patent US20210205329A1 (The University of North Carolina at Chapel Hill, priority 2018, published 2021)
